Experimental data reported in patent publication US20230263759A1, “PARENTERAL NUTRITION FORMULATION” (BAXTER INTERNATIONAL INC., priority 2020, published 2023).

Columns and labels:
[1] = Stability of butyrate derivatives in PN compositions (sterilization, storage; GC-FID); assay type: physicochemical; settings: for free butyric acid released in the lipid chamber during sterilization: after compounding and sterilization of the bags
Description: The concentration of arginine butyrate can be varied relatively broadly over the disclosed range.
Compositions used are described in Table 4 and Table 5. After compounding of the respective butyrate derivatives into the respective chambers of the bags and following sterilization, free butyric acid was measured in the lipid chamber (for tributyrin and DPBG compositions) and the butyrate content in the amino acid chamber was determined. […] In case of the amino acid chamber, the recovery of butyrate after sterilization corresponds to what was introduced. Accordingly, no deterioration of the salt occurred during or after sterilization. In addition, the stability of the composition over time (12 months, 25° C., 40% RH) was confirmed. The free butyric acid can be quantified by GC-FID, after sample preparation by liquid-liquid extraction of the lipid emulsion or directly from amino acid solution. These methods are known in the art.

[2] = tested on: cytokines Il-1β, Il-6, TNF-α, Il-8, Il-10; assay: Cytokine quantification in jejunal and ileal samples; assay type: in vivo, pig; settings: compared to standard PN (s-PN)
Description: Digestive Diseases and Sciences 2002; 47:2049-2055. Jejunal and ileal samples were homogenized in double-distilled water, and the Bradford protein assay (Biorad, Hercules, Calif., USA) was performed on homogenate and plasma samples. Protein (30 μg) from each sample was denatured by boiling, and proteins were separated by size using 12.5% sodium dodecyl sulfate polyacrylamide gel electrophoresis. Separated proteins were transferred to polyvinylidene difluoride membranes (Biorad) using a semidry transfer apparatus (Biorad). Western blot analysis for TNF-alpha, IL-1beta, Il-10 and IL-6 was performed using porcine-specific polyclonal antibodies (Endogen, Woburn, Mass., USA). A mouse anti-pig monoclonal TNF-alpha antibody was used to detect TNF-alpha ([…]) Rabbit anti-pig polyclonal antibodies specific for IL-1beta and IL-6 were used to detect IL-1beta ([…]), Il-10 ([…]) and IL-6 ([…]). Membranes were developed using the Opti-4CN kit (Biorad) and photographed using the FOTO/Analyst Image Analysis System (Fotodyne, Inc., Hart-land, Wisconsin, USA). Densitometry of TNF-alpha, IL-1beta, IL-6, and Il-10 was performed using Collage Image Analysis Software 4.0 (Fotodyne, Inc.). Results are shown in FIG. 15 (Il-6), FIG. 16 (Ill-beta), FIG. 17 (TNF-alpha) and FIG. 18 (Il-10).

sIgA = assay: IgA quantification (sandwich ELISA of intestinal washings); assay type: in vivo, pig; settings: 10 mmol/L; compared to standard PN (s-PN)
Description: Small intestine probes for IgA level determination were obtained by flushing the small intestine with chilled HBSS (Hank's Balanced Salt Solution). Nasal and bronchoalveolar washings for measurement of respiratory tract IgA levels were obtained by lavage with 1 mL phosphate-buffered saline solution under anesthesia. The washings were stored in a −80° C. freezer until IgA analysis. IgA was measured in small intestinal and respiratory tract washings by sandwich enzyme-linked immunosorbent assay using a polyclonal goat anti-mouse IgA (Sigma) to coat the plate, a purified mouse IgA (Zymed Laboratories, San Francisco, Calif.) as the standard, and a horseradish peroxidase-conjugated goat anti-mouse IgA (Sigma) Results are shown in FIG. 13.

[3] = tested on: metastatic colorectal cancer patients; settings: aqueous solution, pH 7.7; phase I clinical trial; cited from earlier work

CCCCCCCCCCCCCCCC(=O)OCC(COC(=O)CCC)OC(=O)CCCCCCCCCCCCCCC (stereo not drawn) [DPBG, 1,2-Dipalmitoyl 3-butyryl glycerol]
free butyric acid released in the lipid chamber during sterilization [1]: only very limited amounts

CCCC(=O)OCC(COC(=O)CCC)OC(=O)CCC [Tributyrin]
Ileal Cytokine Concentration (less pro-inflammatory cytokines Il-1β, Il-6, TNF-α) ([2]; 10 mmol/L): ++ (++ indicates P < 0.05) | Ileal Cytokine Concentration (more anti-inflammatory cytokines Il-8, Il-10) ([2]; 10 mmol/L): + | Jejunal Cytokine Concentration (less pro-inflammatory cytokines Il-1β, Il-6, TNF-α) ([2]; 10 mmol/L): +++ (+++ indicate P < 0.01) | Ileal Cytokine Concentration (less pro-inflammatory cytokines Il-1β, Il-6, TNF-α) ([2]; 30 mmol/L): ++ (++ indicates P < 0.05) | Jejunal Cytokine Concentration (less pro-inflammatory cytokines Il-1β, Il-6, TNF-α) ([2]; 30 mmol/L): +++ (+++ indicate P < 0.01) | Jejunal Cytokine Concentration (more anti-inflammatory cytokines Il-8, Il-10) ([2]; 30 mmol/L): + | free butyric acid released in the lipid chamber during sterilization [1]: only very limited amounts

L-arginine, butanoate (3:4) [Arginine Butyrate]
Ileal Cytokine Concentration (less pro-inflammatory cytokines Il-1β, Il-6, TNF-α) ([2]; 10 mmol/L): +++ (+++ indicate P < 0.01) | Ileal Cytokine Concentration (more anti-inflammatory cytokines Il-8, Il-10) ([2]; 10 mmol/L): +^4 | Jejunal Cytokine Concentration (less pro-inflammatory cytokines Il-1β, Il-6, TNF-α) ([2]; 10 mmol/L): +++ (+++ indicate P < 0.01) | Jejunal Cytokine Concentration (more anti-inflammatory cytokines Il-8, Il-10) ([2]; 10 mmol/L): ++ (++ indicates P < 0.05) | Jejunal sIgA Concentration (sIgA): +++^3 (+++ indicate P < 0.01) | shelf-life over which stable in the amino acid formulation ([1]; 25° C. and 40% relative humidity (RH), also stable during production, sterilization): at least 12 months | tolerated dose [3]: 3 g/kg/day
